In US10562857B2 (AFASCI, Inc., priority 2015, dated 2020):
Like-named read-outs stand apart in the source and are kept apart here.

Experiments:
Cav3.3 = target: T1, Cav3.3 (Homo sapiens, UniProt Q9P0X4); experiment: Whole-cell patch clamp of T-type Cav3.3 channel expressed in HEK293 cells; type: cell-based; conditions: Table 2
T1 construct: expressed in transfected cells; host or cells: HEK-293, tetracycline inducible expression system (Invitrogen)
Protocol: Cav3.1, Cav3.2 or Cav3.3 channels were expressed in human embryonic kidney (HEK)-293 cells using a tetracycline inducible expression system (Invitrogen). Cells were maintained in 25 cm^2 tissue culture flasks at 37° C., 5% CO2, and 100% relative humidity in D-MEM/F12 (Dulbecco's Modified Eagle Medium/Nutrient Mixture F-12; Gibco) supplemented with fetal bovine serum (FBS, 10% v/v), sodium pyruvate (0.5 mM, Gibco), penicillin-streptomycin (100 U/mL, 100 μg/mL) and Geneticin® Selective antibiotic (G418; 0.5 mg/mL). Cells were detached from the flask base using a non-enzymatic cell dissociation solution (Cellstripper, Corning), removed and re-seeded on to poly-D-lysine coated glass coverslips in 35 mm dishes.
Whole-cell voltage clamp recordings were performed on rat or mouse DRG neurons within 2 days after acutely dissociation or cultured HEK293 cells expressing T-type channels (encoded by Cav3.1, Cav3.2 or Cav3.3 channels). All experiments were performed at room temperature (around 21° C.). Whole-cell currents were recorded using a MultiClamp 700B amplifier and analyzed offline with pCLAMP10.4 software (Molecular Devices, LLC, Sunnyvale Calif., USA). […] Since the sodium ions were absent in the external solution, tetrodoctoxin was not needed. Calcium currents were recorded at a holding potential of −100 mV and then depolarized to −30 mV for 100 ms to activate either Cav3.1, Cav3.2, or Cav3.3 expressed in HEK cells. An interpulse interval of 10 seconds allowed the channel recovery from inactivation, and achieved stable current recordings. To record sodium (Na^+) currents in DRG neurons, the external solution used the modified Krebs solution specified above. The internal solution was composed (in mM) of 120 CsF, 10 HEPES, 11 EGTA, 1 CaCl2, 1 MgCl2, 10 TEA-Cl, 4 MgATP and 0.3 MgGTP (pH 7.3-7.4 adjusted with CsOH). […] To record potassium currents in DRG neurons, the external solution used the modified Kreb's solution specified above. The internal solution was composed (in mM) of 65 KCl, 80 KF, 5 KOH, 10 EGTA, 2 MgATP (pH 7.3-7.4 adjusted with KOH). Recording electrodes were fabricated using a P-87 puller (Sutter Instrument Co., Novato, Calif., USA). The tip of resistance was 3-4 MQ in bath and the series resistance was less than 10 MΩ after whole cell configuration. All reagents were purchased from Sigma unless specified otherwise. Test compounds were usually applied via a rapid solution exchange system with 8 fine polyplastic tubings (100 μm, OD) glued in a holder in parallel and located closely to the recorded cells. The current responses were normalized to the control, percent inhibition was calculated and sigmoidal dose-response curves were generated using XLFit (IDBS, Surrey, UK) or Prism (GraphPad Software, La Jolla, Calif., US) to calculate IC50 values and Hill slopes using the following equation Y=Bottom+(Top−Bottom)/(1+10^((Log EC50−X)[…])).

DRG ion channels Na+ = experiment: Sodium currents in DRG neurons, patch clamp; type: cell-based, rodent; conditions: Table 2
Protocol: (§1) All the procedures related to animal handling were in strict accordance with NIH guidelines and IACUC approved protocols. Briefly, the spine was taken out and split into two halves from the middle line after sacrificing the mice by decapitation. […] The DRG neurons were minced with fine scissors and incubated at 35° C. for 50 min. […] Finally the cells were dispersed onto poly-1-ornithine-coated cover slips and maintained in a modified Krebs solution with streptomycin sulfate (0.2 mM), Penicillin G Sodium (0.3 mM), and Gentamycin (0.1 mM) at 21° C. […] All experiments were performed at room temperature (around 21° C.). Whole-cell currents were recorded using a MultiClamp 700B amplifier and analyzed offline with pCLAMP10.4 software (Molecular Devices, LLC, Sunnyvale Calif., USA). […] The internal solution was composed (in mM) of 125 CsCl, 10 HEPES (acid), 10 EGTA (ethylene glycol tetraacetic acid), 1 CaCl2, 1 MgCl2, 4 MgATP and 0.3 […] 7.3-7.4 adjusted with CsOH; osmolality verified as 295 mOsm/kg). Since the sodium ions were absent in the external solution, tetrodoctoxin was not needed. […] To record sodium (Na^+) currents in DRG neurons, the external solution used the modified Krebs solution specified above. […] To record potassium currents in DRG neurons, the external solution used the modified Kreb's solution specified above. The internal solution was composed (in mM) of 65 KCl, 80 KF, 5 KOH, 10 EGTA, 2 MgATP (pH 7.3-7.4 adjusted with KOH). Recording electrodes were fabricated using a P-87 puller (Sutter Instrument Co., Novato, Calif., USA). […] All reagents were purchased from Sigma unless specified otherwise. […] Selectivity among the three subtypes of the Cav3 T-type channel, and off-target effects on other key ion channels of the representative example compounds are presented in Table 2. Sodium and potassium channels in the rodent DRG neurons were recorded and tested as described above. The human ether-a-go-go-related gene (hERG) encodes the rapidly activating potassium channel (IKr) contributing to the repolarization of the cardiac action potential. The blockade of hERG can lead to a QT prolongation in the electrocardiogram known as long QT syndrome (Sanguinetti, et al., 1995). Therefore the representative example compounds in Table 2 were tested against the hERG channel.

DRG ion channels K+ = experiment: Potassium currents in DRG neurons, patch clamp; type: cell-based, rodent; conditions: Table 2
Protocol: as §1

hERG channel = target: T2, hERG channel (Homo sapiens, UniProt Q12809); experiment: hERG patch clamp in hERG-expressing CHO cells; type: cell-based
T2 construct: expressed in transfected cells; host or cells: CHO
T2 sequence (Q12809 whole entry): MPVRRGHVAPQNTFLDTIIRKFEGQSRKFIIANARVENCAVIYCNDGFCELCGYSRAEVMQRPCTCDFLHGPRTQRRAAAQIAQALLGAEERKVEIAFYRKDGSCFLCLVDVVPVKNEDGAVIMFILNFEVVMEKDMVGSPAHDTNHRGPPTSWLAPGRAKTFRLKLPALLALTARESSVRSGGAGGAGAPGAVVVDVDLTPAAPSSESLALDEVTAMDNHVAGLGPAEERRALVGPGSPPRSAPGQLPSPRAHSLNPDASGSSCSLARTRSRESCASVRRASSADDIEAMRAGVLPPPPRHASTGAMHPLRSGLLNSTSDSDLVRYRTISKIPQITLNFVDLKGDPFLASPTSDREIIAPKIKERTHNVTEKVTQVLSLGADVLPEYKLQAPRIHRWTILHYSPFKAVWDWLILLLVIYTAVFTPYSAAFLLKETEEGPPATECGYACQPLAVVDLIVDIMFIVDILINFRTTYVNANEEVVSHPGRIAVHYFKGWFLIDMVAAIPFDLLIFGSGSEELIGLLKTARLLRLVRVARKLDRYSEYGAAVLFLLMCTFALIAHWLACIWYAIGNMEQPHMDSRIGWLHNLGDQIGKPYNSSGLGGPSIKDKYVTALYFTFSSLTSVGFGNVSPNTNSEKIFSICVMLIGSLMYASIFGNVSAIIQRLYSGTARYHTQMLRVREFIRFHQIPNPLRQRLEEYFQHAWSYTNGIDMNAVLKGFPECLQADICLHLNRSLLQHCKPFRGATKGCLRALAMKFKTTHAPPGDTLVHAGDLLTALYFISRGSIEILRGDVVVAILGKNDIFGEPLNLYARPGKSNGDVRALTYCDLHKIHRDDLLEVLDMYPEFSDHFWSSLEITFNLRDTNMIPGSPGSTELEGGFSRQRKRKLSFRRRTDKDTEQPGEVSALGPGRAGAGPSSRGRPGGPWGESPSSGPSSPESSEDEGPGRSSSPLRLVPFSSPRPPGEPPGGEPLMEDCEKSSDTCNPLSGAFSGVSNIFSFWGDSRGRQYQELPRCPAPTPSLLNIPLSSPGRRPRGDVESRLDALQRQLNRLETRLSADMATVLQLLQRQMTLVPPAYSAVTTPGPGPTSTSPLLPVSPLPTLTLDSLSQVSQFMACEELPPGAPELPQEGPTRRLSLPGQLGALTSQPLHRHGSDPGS
Protocol: Sodium and potassium channels in the rodent DRG neurons were recorded and tested as described above. The human ether-a-go-go-related gene (hERG) encodes the rapidly activating potassium channel (IKr) contributing to the repolarization of the cardiac action potential. […] Therefore the representative example compounds in Table 2 were tested against the hERG channel.
Whole-cell patch clamp electrophysiology is employed to test compounds and a positive control compound. Extracellular Ringer's solution contains (in mM): NaCl (130), KCl (5), CaCl2 (1), Glucose (10), HEPES-Na (10) (pH 7.4 adjusted with HCl). Internal pipette solution contains (in mM): KF (120), CaCl2 (1), MgCl2 (1), KCl (10), EGTA (11), HEPES (10), KOH (11) (pH 7.2 adjusted with KOH). The hERG potassium currents are recorded under a holding potential of −80 mV and then depolarized to 40 mV for 2.5 seconds to activate the hERG channel. The peak tail currents are induced by a repolarizing pulse to −50 mV for 4 seconds. A 250 millisecond prepulse to −50 mV is applied for leak subtraction. This voltage-clamp pulse protocol is performed continuously during the experiment every 20 seconds allowing recovery from inactivation. For IC50 determination, each concentration is applied for 2 mins to reach a steady-state inhibitory level prior to the next higher concentrations tested. Each concentration is tested at 2-3 times (n=2-3).

T1 sequence (Q9P0X4 whole entry, species assumed): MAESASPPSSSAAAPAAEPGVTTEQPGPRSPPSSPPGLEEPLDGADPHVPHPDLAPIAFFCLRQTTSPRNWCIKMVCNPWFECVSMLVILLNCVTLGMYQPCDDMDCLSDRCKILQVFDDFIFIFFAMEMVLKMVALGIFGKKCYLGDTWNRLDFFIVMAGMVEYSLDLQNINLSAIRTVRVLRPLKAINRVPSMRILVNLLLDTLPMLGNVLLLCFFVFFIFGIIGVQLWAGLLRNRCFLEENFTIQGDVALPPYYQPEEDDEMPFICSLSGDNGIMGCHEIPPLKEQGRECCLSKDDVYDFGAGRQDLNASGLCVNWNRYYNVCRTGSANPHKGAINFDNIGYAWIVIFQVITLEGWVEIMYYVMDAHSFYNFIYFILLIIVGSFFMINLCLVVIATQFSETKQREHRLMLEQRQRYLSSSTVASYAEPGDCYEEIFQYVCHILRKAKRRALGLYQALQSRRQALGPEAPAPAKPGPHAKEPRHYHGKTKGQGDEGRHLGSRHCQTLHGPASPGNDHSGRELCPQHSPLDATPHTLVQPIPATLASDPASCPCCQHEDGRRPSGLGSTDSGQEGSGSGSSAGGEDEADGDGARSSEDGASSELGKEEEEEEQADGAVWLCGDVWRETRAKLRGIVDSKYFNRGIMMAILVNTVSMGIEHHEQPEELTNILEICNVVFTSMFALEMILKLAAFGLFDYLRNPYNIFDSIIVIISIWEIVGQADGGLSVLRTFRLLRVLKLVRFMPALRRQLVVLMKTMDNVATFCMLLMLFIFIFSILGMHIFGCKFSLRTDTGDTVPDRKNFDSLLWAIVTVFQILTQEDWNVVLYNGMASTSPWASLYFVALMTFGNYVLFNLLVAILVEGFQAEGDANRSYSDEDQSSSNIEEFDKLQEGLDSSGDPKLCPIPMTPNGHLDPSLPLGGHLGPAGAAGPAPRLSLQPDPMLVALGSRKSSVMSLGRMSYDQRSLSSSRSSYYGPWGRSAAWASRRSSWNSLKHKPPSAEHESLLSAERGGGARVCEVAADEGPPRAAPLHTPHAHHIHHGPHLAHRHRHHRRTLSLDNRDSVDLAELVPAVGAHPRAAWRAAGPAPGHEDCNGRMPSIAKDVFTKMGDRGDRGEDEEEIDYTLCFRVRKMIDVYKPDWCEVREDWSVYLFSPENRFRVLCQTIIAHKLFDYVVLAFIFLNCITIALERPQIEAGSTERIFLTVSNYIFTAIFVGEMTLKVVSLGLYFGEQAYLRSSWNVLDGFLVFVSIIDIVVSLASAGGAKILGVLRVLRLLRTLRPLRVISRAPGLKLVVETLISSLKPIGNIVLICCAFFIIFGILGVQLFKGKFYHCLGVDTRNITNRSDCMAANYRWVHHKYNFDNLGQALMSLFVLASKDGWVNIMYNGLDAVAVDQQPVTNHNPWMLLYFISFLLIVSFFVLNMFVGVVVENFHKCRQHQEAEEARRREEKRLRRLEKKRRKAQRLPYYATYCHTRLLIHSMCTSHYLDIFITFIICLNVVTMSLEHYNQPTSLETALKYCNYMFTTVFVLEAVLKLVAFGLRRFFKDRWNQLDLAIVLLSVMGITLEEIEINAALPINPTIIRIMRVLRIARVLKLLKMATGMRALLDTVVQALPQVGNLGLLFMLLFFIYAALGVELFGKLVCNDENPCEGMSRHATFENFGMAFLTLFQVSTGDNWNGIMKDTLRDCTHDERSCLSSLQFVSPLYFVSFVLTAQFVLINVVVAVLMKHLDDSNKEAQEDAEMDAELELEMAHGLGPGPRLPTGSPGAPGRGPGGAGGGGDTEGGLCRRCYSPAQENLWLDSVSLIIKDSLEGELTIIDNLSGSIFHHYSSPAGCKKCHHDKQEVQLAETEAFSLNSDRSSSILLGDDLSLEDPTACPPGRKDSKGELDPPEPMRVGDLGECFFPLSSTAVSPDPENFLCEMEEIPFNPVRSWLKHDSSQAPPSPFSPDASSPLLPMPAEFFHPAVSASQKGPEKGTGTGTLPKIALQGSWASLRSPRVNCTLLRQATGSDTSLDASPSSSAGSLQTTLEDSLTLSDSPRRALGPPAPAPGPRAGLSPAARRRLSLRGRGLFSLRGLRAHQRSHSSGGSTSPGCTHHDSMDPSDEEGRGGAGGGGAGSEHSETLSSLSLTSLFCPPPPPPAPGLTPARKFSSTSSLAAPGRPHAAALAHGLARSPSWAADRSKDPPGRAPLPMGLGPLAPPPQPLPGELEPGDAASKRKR

Row | Structure (SMILES) | IC50 (Cav3.3) [µM] | IC50 (DRG ion channels Na+) [µM] | IC50 (DRG ion channels K+) [µM] | IC50 (hERG channel) [µM] | IC50 (hERG channel; Table 2, read-out: hERG IC50) [µM]
1 | CC(C)(C)CCN1CCC2(CC1)CC2NC(=O)c1cc(F)cc(Cl)c1 (stereo not shown) [Example 28, 3-Chloro-N-(6-(3,3-dimethylbutyl)-6-azaspiro[2.5]octan-1-yl)-5-fluorobenzamide] | 0.21 | 23.4 | ~100 | 3.6 | 
2 | CC(C)(C)NC(=O)CN1CCC2(CC1)CC2C(=O)Nc1cc(F)cc(C(F)(F)F)c1 (stereo not shown) [Example 141, 6-(2-(tert-Butylamino)-2-oxoethyl)-N-(3-fluoro-5-(trifluoromethyl)phenyl)-6-azaspiro[2.5]octane-1-carboxamide] | 0.23 | > 30 | > 30 |  | 17.4
3 | CC(C)(C)CCN1C[C@@H]2[C@@H](CNC(=O)c3cc(Cl)cc(Cl)c3)[C@@H]2C1 [ML218, 3,5-Dichloro-N-[[(1α,5α,6-exo,6α)-3-(3,3-dimethylbutyl)-3-azabicyclo[3.1.0]hex-6-yl]methyl]benzamide, reference compound] | 0.27 | 55.6 | 79.7 |  | 2.1
4 | CC(C)(C)NC(=O)CN1CCC(CNC(=O)c2cc(F)cc(Cl)c2)CC1 [Z944, reference compound] | 0.57 | > 30 | > 30 |  | 9.5
